The target of this assay is cruzipain (Trypanosoma cruzi, UniProt P25779). Nature of the assay: biochemical. The following applies: 50 pM cruzipain, pH 5.5, 15 minutes preincubation, 2 μM Z-Phe-Arg-AMC substrate. As for the experimental part: The assay solutions were mixed and incubated for 15 minutes at room temperature prior to the addition of 2 μM of Z-Phe-Arg-AMC substrate. […] Percent of inhibition were calculated by fitting experimental values to standard mathematical model for dose response curve.
Chain of cruzipain (P25779 123-467): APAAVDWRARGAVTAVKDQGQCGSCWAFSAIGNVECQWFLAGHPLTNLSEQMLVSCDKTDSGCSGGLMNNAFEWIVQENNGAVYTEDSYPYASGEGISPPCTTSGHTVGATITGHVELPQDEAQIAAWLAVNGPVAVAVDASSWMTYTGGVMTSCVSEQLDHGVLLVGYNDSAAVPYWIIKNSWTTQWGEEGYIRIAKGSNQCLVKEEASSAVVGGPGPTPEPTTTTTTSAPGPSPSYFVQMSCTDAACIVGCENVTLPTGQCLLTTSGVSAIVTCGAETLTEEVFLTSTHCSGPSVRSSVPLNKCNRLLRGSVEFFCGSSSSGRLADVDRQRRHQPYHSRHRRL
For the molecule `CC(C)(F)C[C@H](N[C@@H](c1ccc(-c2ccc(S(C)(=O)=O)cc2)cc1)C(F)(F)F)C(=O)NC(C#N)Cc1ccc(C(F)(F)F)cc1F` (stereo partly drawn) [Example 33, (S)-4-Fluoro-4-methyl-2-[(S)-2,2,2-trifluoro-1-(4′-methanesulfonyl-biphenyl-4-yl)-ethylamino]-pentanoic acid [cyano-(2-fluoro-4-trifluoromethyl-benzyl)-methyl]-amide], the concentration for half-maximal inhibition (IC50) is 3.5 nM. For `CC(C)[C@H](N[C@@H](c1ccc(-c2ccc([C@@H](O)C(F)F)cc2)cc1)C(F)(F)F)C(=O)N[C@H](C#N)Cc1c(F)cc(C#N)cc1F` [Example 73, (S)-N-[(S)-Cyano-(4-cyano-2,6-difluoro-benzyl)-methyl]-2-{(S)-1-[4,- ((R)-2,2-difluoro-1-hydroxy-ethyl)-biphenyl-4-yl]-2,2,2-trifluoro-ethylamino}-3-methyl-butyramide] the value was 0.7 nM; for `CC(C)(F)C[C@H](N[C@@H](c1ccc(-c2ccc(S(C)(=O)=O)cc2)cc1)C(F)(F)F)C(=O)N[C@H](C#N)Cc1ccc(C#N)cc1` [Example 3, (S)-4-Fluoro-4-methyl-2-[(S)-2,2,2-trifluoro-1-(4′-methanesulfonyl-biphenyl-4-yl)-ethylamino]-pentanoic acid [(S)-1-cyano-2-(4-cyano-phenyl)-ethyl]-amide], 1.5 nM. The result for `CC(C)(F)C[C@H](N[C@@H](c1ccc(-c2ccc(S(C)(=O)=O)cc2)cc1)C(F)(F)F)C(=O)N[C@H](C#N)Cc1ccc(Cl)cc1Cl` [Example 18, (S)-4-Fluoro-4-methyl-2-[(S)-2,2,2-trifluoro-1-(4′-methanesulfonyl-biphenyl-4-yl)-ethylamino]-pentanoic acid [(S)-1-cyano-2-(2,4-dichloro-phenyl)-ethyl]-amide] reads 1.3 nM.

(Values after patent publication US8642799B2, “Cysteine protease inhibitors for the treatment of parasitic diseases” (Merck Canada Inc., priority 2007, dated 2014).)
